# Test results: patent US12616740B2, “Methods of using a GIP/GLP1 co-agonist for therapy” (ELI LILLY AND COMPANY, priority 2018, dated 2026)
# Experiments:
# [1] = test system: patients with type 2 diabetes who have inadequate glycemic control; experiment: Phase 2 clinical study NCT03311724 (12 weeks, escalation schemes): patients reaching HbA1c target; assay type: in vivo, human
# Source text: (§1) This is a 12-week treatment with a 1 week screening (Visit 1) followed by a 1 week lead-in (Visit 2), then 12 weeks of treatment (Visits 3-10, including telephone visits), then followed by 4-week safety follow-up. It is a Phase 2 study designed to examine the efficacy and tolerability of subcutaneously once-weekly tirzepatide compared with placebo in patients with type 2 diabetes who have inadequate glycemic control with diet and exercise alone or with a stable dose of metformin. The study was designed per below and conducted to refine the escalation scheme.
# [2] = NCT03311724: weight loss at Week 12; assay type: in vivo, human
# Source text: as §1
# [3] = LY 12 mg Group 3 (tirzepatide 4 mg × 4, 8 mg × 4, 12 mg × 4 once weekly), LOCF Week 12 (N = 28)
# [4] = LY 12 mg Group 3 (tirzepatide 4 mg × 4, 8 mg × 4, 12 mg × 4 once weekly), Week 12 mITT on-treatment (N = 27)
# [5] = LY 15 mg-Group 1 (tirzepatide 2.5 mg × 2, 5 mg × 2, 10 mg × 4, 15 mg × 4 once weekly), LOCF Week 12 (N = 28)
# [6] = LY 15 mg-Group 1 (tirzepatide 2.5 mg × 2, 5 mg × 2, 10 mg × 4, 15 mg × 4 once weekly), Week 12 mITT on-treatment (N = 23)
# [7] = LY 15 mg-Group 2 (tirzepatide 2.5 mg × 4, 7.5 mg × 4, 15 mg × 4 once weekly), LOCF Week 12 (N = 27)
# [8] = LY 15 mg-Group 2 (tirzepatide 2.5 mg × 4, 7.5 mg × 4, 15 mg × 4 once weekly), Week 12 mITT on-treatment (N = 26)
# [9] = LY 12 mg Group 3 (tirzepatide 4 mg × 4, 8 mg × 4, 12 mg × 4 once weekly), LOCF Week 12 (N = 27)
# [10] = LY 15 mg-Group 1 (tirzepatide 2.5 mg × 2, 5 mg × 2, 10 mg × 4, 15 mg × 4 once weekly), LOCF Week 12 (N = 27)
substance,measurement,setting,value
tirzepatide [LY],placebo-adjusted changes from baseline in HbA1c (in words),"[1]; 12-mg and 15-mg tirzepatide doses, after 12 weeks of treatment, including an 8-week escalation period",statistically significant and clinically relevant
same,% of Patients Reaching HbA1c Target <5.7%,[1]; [3],3.6%
same,% of Patients Reaching HbA1c Target <7%,[1]; [3],71.4%
same,"odds ratio vs. placebo, Patients Reaching HbA1c Target <5.7%",[1]; [3],2.8
same,"odds ratio vs. placebo, Patients Reaching HbA1c Target <7%",[1]; [3],16.1
same,% of Patients Reaching HbA1c Target <5.7%,[1]; [4],3.7%
same,% of Patients Reaching HbA1c Target <7%,[1]; [4],74.1%
same,"odds ratio vs. placebo, Patients Reaching HbA1c Target <5.7%",[1]; [4],2.5
same,"odds ratio vs. placebo, Patients Reaching HbA1c Target <7%",[1]; [4],56.5
same,% of Patients Reaching HbA1c Target <5.7%,[1]; [5],3.6%
same,% of Patients Reaching HbA1c Target <7%,[1]; [5],78.6%
same,"odds ratio vs. placebo, Patients Reaching HbA1c Target <5.7%",[1]; [5],2.9
same,"odds ratio vs. placebo, Patients Reaching HbA1c Target <7%",[1]; [5],25.1
same,% of Patients Reaching HbA1c Target <5.7%,[1]; [6],4.3%
same,% of Patients Reaching HbA1c Target <7%,[1]; [6],87.0%
same,"odds ratio vs. placebo, Patients Reaching HbA1c Target <5.7%",[1]; [6],3.1
same,"odds ratio vs. placebo, Patients Reaching HbA1c Target <7%",[1]; [6],183.5
same,% of Patients Reaching HbA1c Target <5.7%,[1]; [7],7.4%
same,% of Patients Reaching HbA1c Target <7%,[1]; [7],85.2%
same,"odds ratio vs. placebo, Patients Reaching HbA1c Target <5.7%",[1]; [7],5.0
same,"odds ratio vs. placebo, Patients Reaching HbA1c Target <7%",[1]; [7],37.9
same,% of Patients Reaching HbA1c Target <5.7%,[1]; [8],7.7%
same,% of Patients Reaching HbA1c Target <7%,[1]; [8],84.6%
same,"odds ratio vs. placebo, Patients Reaching HbA1c Target <5.7%",[1]; [8],4.6
same,"odds ratio vs. placebo, Patients Reaching HbA1c Target <7%",[1]; [8],157.5
same,body weight vs placebo (in words),"[2]; 12 mg and 15 mg tirzepatide doses, at 12 weeks",significant reductions in body weight compared with placebo
same,% of Patients Achieving Weight loss ≥5%,[2]; [9],63.0%
same,% of Patients Achieving Weight loss ≥10%,[2]; [9],18.5%
same,"odds ratio vs. placebo, Weight loss ≥5%",[2]; [9],22.7
same,"odds ratio vs. placebo, Weight loss ≥10%",[2]; [9],10.4
same,% of Patients Achieving Weight loss ≥5%,[2]; [4],63.0%
same,% of Patients Achieving Weight loss ≥10%,[2]; [4],18.5%
same,"odds ratio vs. placebo, Weight loss ≥5%",[2]; [4],20.7
same,"odds ratio vs. placebo, Weight loss ≥10%",[2]; [4],9.3
same,% of Patients Achieving Weight loss ≥5%,[2]; [10],59.3%
same,% of Patients Achieving Weight loss ≥10%,[2]; [10],14.8%
same,"odds ratio vs. placebo, Weight loss ≥5%",[2]; [10],20.5
same,"odds ratio vs. placebo, Weight loss ≥10%",[2]; [10],8.0
same,% of Patients Achieving Weight loss ≥5%,[2]; [6],56.5%
same,% of Patients Achieving Weight loss ≥10%,[2]; [6],13.0%
same,"odds ratio vs. placebo, Weight loss ≥5%",[2]; [6],17.1
same,"odds ratio vs. placebo, Weight loss ≥10%",[2]; [6],6.2
same,% of Patients Achieving Weight loss ≥5%,[2]; [7],55.6%
same,% of Patients Achieving Weight loss ≥10%,[2]; [7],18.5%
same,"odds ratio vs. placebo, Weight loss ≥5%",[2]; [7],17.6
same,"odds ratio vs. placebo, Weight loss ≥10%",[2]; [7],10.6
same,% of Patients Achieving Weight loss ≥5%,[2]; [8],57.7%
same,% of Patients Achieving Weight loss ≥10%,[2]; [8],19.2%
same,"odds ratio vs. placebo, Weight loss ≥5%",[2]; [8],17.4
same,"odds ratio vs. placebo, Weight loss ≥10%",[2]; [8],9.7
